In patent publication US4405743A, “Pyrazolylpyrimidine derivatives” (Hokko Chemical Industry Co., Ltd., priority 1981, dated 1983):
Converted amounts (≈) assume the structure as drawn. Where two headings read alike, the source gives them in different places.

Key:
Pyricularia oryzae [1] = format: in vivo, Pyricularia oryzae on rice plant (variety: Asahi); conditions: rice blast, prevention; 200 ppm; 5 days after inoculation
Pyricularia oryzae [2] = format: in vivo, Pyricularia oryzae on rice plant (variety: Asahi); conditions: rice blast, curative treatment; sprayed liquid 200 ppm; 5 days after spraying
Cochliobolus miyabeanus [3] = assay: Effect of controlling rice brown spot, Experimental Example 3; format: in vivo, Cochliobolus miyabeanus on rice plant (variety: Asahi); conditions: sprayed liquid 500 ppm, 5 days after inoculation
Sphaerotheca friliginea = assay: Effect of controlling cucumber powdery mildew, Experimental Example 4; format: in vivo; conditions: sprayed liquid 200 ppm, 10 days after inoculation
Method: 10 ml of each of test liquids diluted to a predetermined concentration was sprayed over seedlings of a cucumber plant (variety: Sagami Hanpaku) grown up to the first leaf stage which has been soil cultured in an unglazed pot with a diameter of 9 cm in a green house. After allowing to stand overnight, the seedlings were sprayed for inoculation with a spore suspension of Sphaerotheca friliginea. Ten days after the inoculation, the rate of a lesion area (%) was checked and a control value was evaluated from the following equation. The degree of chemical injury against a cucumber plant was determined in the same manner as in Experimental Example.

Alternaria padwikii = assay: Antimicrobial activity (mycelium growth inhibition, PDA medium); format: cell-based; conditions: 24° C., read-out: ED50 value
Method: (§1) Experimental Example 5 (Test for Antimicrobial Activity Against Various Plant Phathogenic Fungi)
(§2) 1 ml of an acetone solution of each of test compounds and 20 ml of the PDA medium (50° C.) to prepare media containing the chemical in different concentrations, followed by charging into a petri dish with a diameter of 9 cm where it was solidified flat. On the central portion of the chemical-containing medium was inoculated a fungus-containing medium a piece of ager black-containing mycelia which was obtained by punching by means of a cork borer the tip portion of mycelia of each test fungus which had been cultured in advance in the PDA medium, followed by cultivating at 24° C. Two to six days after the cultivation, the diameter of the mycelia was measured and mycelium growth inhibiting rate was calculated from a comparison with that of a non-treated plot. The mycelium growth inhibiting rate was plotted on a logarithmic probability paper to determine an ED50 value.

Botrytis cinerea = assay: as above; format: cell-based; conditions: 24° C., read-out: ED50 value
Method: as §1, §2

Curvularia sp. = assay: as above; format: cell-based; conditions: 24° C., read-out: ED50 value
Method: as §1, §2

Diaporthe citri = assay: as above; format: cell-based; conditions: 24° C., read-out: ED50 value
Method: as §1, §2

Endothia parasitica = assay: as above; format: cell-based; conditions: Cryphonectria parasitica, 24° C., read-out: ED50 value
Method: as §1, §2

Fusarium nivale = assay: as above; format: cell-based; conditions: Microdochium nivale, 24° C., read-out: ED50 value
Method: as §1, §2

Glomerella cingulata = assay: as above; format: cell-based; conditions: Colletotrichum gloeosporioides, 24° C., read-out: ED50 value
Method: as §1, §2

[4] = system: Helminthosporium gramineum; assay: as above; format: cell-based; conditions: 24° C., read-out: ED50 value
Method: as §1, §2

Mycosphaerella melonis = assay: as above; format: cell-based; conditions: 24° C., read-out: ED50 value
Method: as §1, §2

Pellicularia sasakii = assay: as above; format: cell-based; conditions: 24° C., read-out: ED50 value
Method: as §1, §2

Penicillium digitatum = assay: as above; format: cell-based; conditions: 24° C., read-out: ED50 value
Method: as §1, §2

Phizoctonia solani = assay: as above; format: cell-based; conditions: 24° C., read-out: ED50 value
Method: as §1, §2

Phoma lingam = assay: as above; format: cell-based; conditions: Plenodomus lingam, 24° C., read-out: ED50 value
Method: as §1, §2

Sclerotinia fructigena = assay: as above; format: cell-based; conditions: 24° C., read-out: ED50 value
Method: as §1, §2

Sclerotinia sclerotiorum = assay: as above; format: cell-based; conditions: 24° C., read-out: ED50 value
Method: as §1, §2

Cochliobolus miyabeanus [5] = assay: as above; format: cell-based; conditions: Bipolaris oryzae, read-out: ED50 value
Pyricularia oryzae [6] = assay: microbe, parasite or virus in culture; format: cell-based; conditions: read-out: ED50 value
rice plant [7] = conditions: blast prevention test, 200 ppm
rice plant [8] = conditions: blast curative test, 200 ppm
rice plant [9] = conditions: in vivo
cucumber plant = conditions: in vivo

Row | SMILES | Control Value (Pyricularia oryzae [1]) [%] | Control Value (Pyricularia oryzae [2]) [%] | Control Value (Cochliobolus miyabeanus [3]) [%] | Control Value (Sphaerotheca friliginea) [%] | IC50 (Alternaria padwikii) [µg/mL] | IC50 (Botrytis cinerea) [µg/mL] | IC50 (Curvularia sp.) [µg/mL] | IC50 (Diaporthe citri) [µg/mL] | IC50 (Endothia parasitica) [µg/mL] | IC50 (Fusarium nivale) [µg/mL] | IC50 (Glomerella cingulata) [µg/mL] | IC50 [4] [µg/mL] | IC50 (Mycosphaerella melonis) [µg/mL] | IC50 (Pellicularia sasakii) [µg/mL] | IC50 (Penicillium digitatum) [µg/mL] | IC50 (Phizoctonia solani) [µg/mL] | IC50 (Phoma lingam) [µg/mL] | IC50 (Sclerotinia fructigena) [µg/mL] | IC50 (Sclerotinia sclerotiorum) [µg/mL] | IC50 (Cochliobolus miyabeanus [5]) [µg/mL] | also measured
1 | Cc1cc(C)n(-c2ncc(C)c(Sc3ccccc3)n2)n1 [Compound 35] | 84 | 95 | 92 | 100 | 1 (≈ 3.37 µM) | 9.6 (≈ 32.4 µM) | 1.8 (≈ 6.07 µM) | 4.6 (≈ 15.5 µM) | 6.8 (≈ 22.9 µM) | 2.6 (≈ 8.77 µM) | 9.6 (≈ 32.4 µM) | 6.3 (≈ 21.3 µM) | 2 (≈ 6.75 µM) | 1.3 (≈ 4.39 µM) | 0.8 (≈ 2.7 µM) | 2.8 (≈ 9.45 µM) | 4.6 (≈ 15.5 µM) | 0.7 (≈ 2.36 µM) | 6.1 (≈ 20.6 µM) | 4.3 (≈ 14.5 µM) | IC50 (Pyricularia oryzae [6]): 0.2 µg/mL (≈ 0.675 µM); Degree of chemical injury (rice plant [7]): 0; Degree of chemical injury (rice plant [8]): 0; Degree of chemical injury (rice plant [9]): 0; Degree of chemical injury (cucumber plant): 0
2 | CCOc1nc(-n2nc(C)cc2C)ncc1C [Compound 32] | 100 | 93 | 76 | 93 | 1.2 (≈ 5.17 µM) | 13.8 (≈ 59.4 µM) | 1.6 (≈ 6.89 µM) | 4 (≈ 17.2 µM) | 7.5 (≈ 32.3 µM) | 2.3 (≈ 9.9 µM) | 7 (≈ 30.1 µM) | 7.5 (≈ 32.3 µM) | 1.8 (≈ 7.75 µM) | 1.5 (≈ 6.46 µM) | 0.6 (≈ 2.58 µM) | 2.4 (≈ 10.3 µM) | 5.3 (≈ 22.8 µM) | 0.9 (≈ 3.87 µM) | 5.5 (≈ 23.7 µM) | 3.8 (≈ 16.4 µM) | IC50 (Pyricularia oryzae [6]): 0.8 µg/mL (≈ 3.44 µM); Degree of chemical injury (rice plant [7]): 0; Degree of chemical injury (rice plant [8]): 0; Degree of chemical injury (rice plant [9]): 0; Degree of chemical injury (cucumber plant): 0
3 | CCCCc1c(C)nc(-n2nc(C)cc2C)nc1OCC [Compound 41] | 100 | 100 | 100 | 94 | 0.7 (≈ 2.43 µM) | 4.5 (≈ 15.6 µM) | 1.6 (≈ 5.55 µM) | 2 (≈ 6.93 µM) | 4.6 (≈ 16 µM) | 0.2 (≈ 0.693 µM) | 4.1 (≈ 14.2 µM) | 2.8 (≈ 9.71 µM) | 0.7 (≈ 2.43 µM) | 1.1 (≈ 3.81 µM) | 1.1 (≈ 3.81 µM) | 1.4 (≈ 4.85 µM) | 2.6 (≈ 9.02 µM) | 1.5 (≈ 5.2 µM) | 3.8 (≈ 13.2 µM) | 1.4 (≈ 4.85 µM) | IC50 (Pyricularia oryzae [6]): 0.01 µg/mL (≈ 0.0347 µM); Degree of chemical injury (rice plant [7]): 0; Degree of chemical injury (rice plant [8]): 0; Degree of chemical injury (rice plant [9]): 0; Degree of chemical injury (cucumber plant): 0
4 | Cc1cc(C)n(-c2nc(C)c(C)c(Oc3ccccc3)n2)n1 [Compound 38] | 100 | 100 | 87 | 100 | 1.7 (≈ 5.78 µM) | 8.8 (≈ 29.9 µM) | 1.5 (≈ 5.1 µM) | 3.8 (≈ 12.9 µM) | 6.2 (≈ 21.1 µM) | 2.7 (≈ 9.17 µM) | 7.3 (≈ 24.8 µM) | 3.2 (≈ 10.9 µM) | 4 (≈ 13.6 µM) | 1.2 (≈ 4.08 µM) | 1.4 (≈ 4.76 µM) | 2 (≈ 6.79 µM) | 2.7 (≈ 9.17 µM) | 1.6 (≈ 5.44 µM) | 3.6 (≈ 12.2 µM) | 2.8 (≈ 9.51 µM) | IC50 (Pyricularia oryzae [6]): 0.04 µg/mL (≈ 0.136 µM); Degree of chemical injury (rice plant [7]): 0; Degree of chemical injury (rice plant [8]): 0; Degree of chemical injury (rice plant [9]): 0; Degree of chemical injury (cucumber plant): 0
